Assay results from ChEMBL document CHEMBL1154554, “Ganomycins A and B, new antimicrobial farnesyl hydroquinones from the basidiomycete Ganoderma pfeifferi” (2000).
Values after ≈ are worked out from the molar mass of the structure shown. Active and inactive are the calls of the source. The rule behind the calls is not given here.

Key:
[1] = test system: Micrococcus luteus; test: Antibacterial activity against Micrococcus flavus SBUG 16 after 18 hrs by broth microdilution method; assay type: functional
[2] = test system: Staphylococcus aureus; test: Antibacterial activity against Staphylococcus aureus after 18 hrs by broth microdilution method; assay type: functional
[3] = test system: Serratia marcescens; test: Antibacterial activity against sSerratia marcescens SBUG 9 at 100 ug/disk after 18 hrs by agar diffusion method; assay type: functional; conditions: for zone of inhibition at 100 µg/disc: read-out: IZ
[4] = test system: Staphylococcus aureus; test: Antibacterial activity against Staphylococcus aureus SG511 at 100 ug/disk after 18 hrs by agar diffusion method; assay type: functional; conditions: for zone of inhibition at 100 µg/disc: read-out: IZ
[5] = test system: Staphylococcus aureus; test: Antibacterial activity against Staphylococcus aureus ATCC 29213 at 100 ug/disk after 18 hrs by agar diffusion method; assay type: functional; conditions: for zone of inhibition at 100 µg/disc: ATCC 29213, 18 h, read-out: IZ
[6] = test system: Escherichia coli; test: Antibacterial activity against sEscherichia coli SBUG 13 at 100 ug/disk after 18 hrs by agar diffusion method; assay type: functional; conditions: for zone of inhibition at 100 µg/disc: read-out: IZ
[7] = test system: Micrococcus luteus; test: Antibacterial activity against Micrococcus flavus SBUG 16 at 100 ug/disk after 48 hrs by agar diffusion method; assay type: functional; conditions: for zone of inhibition at 100 µg/disc: read-out: IZ
[8] = test system: Staphylococcus aureus; test: Antibacterial activity against Staphylococcus aureus ATCC 6538 at 100 ug/disk after 18 hrs by agar diffusion method; assay type: functional; conditions: for zone of inhibition at 100 µg/disc: ATCC 6538, 18 h, read-out: IZ
[9] = test system: Staphylococcus aureus; test: Antibacterial activity against Staphylococcus aureus ATCC 25923 at 100 ug/disk after 18 hrs by agar diffusion method; assay type: functional; conditions: for zone of inhibition at 100 µg/disc: ATCC 25923, 18 h, read-out: IZ
[10] = test system: Bacillus subtilis; test: Antibacterial activity against Bacillus subtilis SBUG 14 at 100 ug/disk after 18 hrs by agar diffusion method; assay type: functional; conditions: for zone of inhibition at 100 µg/disc: read-out: IZ
[11] = test system: Pseudomonas aeruginosa; test: Antibacterial activity against Pseudomonas aeruginosa ATCC 15442 at 100 ug/disk after 18 hrs by agar diffusion method; assay type: functional, organism-based
[12] = test system: Proteus mirabilis; test: Antibacterial activity against Proteus mirabilis SBUG 47 at 100 ug/disk after 18 hrs by agar diffusion method; assay type: functional; conditions: for zone of inhibition at 100 µg/disc: read-out: IZ
[13] = test system: Candida maltosa; test: […] activity against Candida maltosa 100 ug/disk after 18 hrs by agar diffusion method; assay type: functional, organism-based
[14] = test system: Candida albicans; test: […] activity against Candida albicans at 100 ug/disk after 18 hrs by agar diffusion method; assay type: functional, organism-based

CC1(C)S[C@@H]2[C@H](NC(=O)[C@H](N)c3ccccc3)C(=O)N2[C@H]1C(=O)O [AMPICILLIN]
MIC [1]: 0.25 mg/L (≈ 0.715 µM)
MIC [2]: 0.05 mg/L (≈ 0.143 µM)

COC1=C(OC)C(=O)C(C/C=C(\C)CC/C=C(\C)CC/C=C(\C)CC/C=C(\C)CC/C=C(\C)CC/C=C(\C)CC/C=C(\C)CC/C=C(\C)CC/C=C(\C)CCC=C(C)C)=C(C)C1=O
Activity [3]: inactive
Activity [4]: inactive
Activity [5]: inactive
Activity [6]: inactive
Activity [7]: inactive
Activity [8]: inactive
Activity [9]: inactive
Activity [10]: inactive
Activity [11]: inactive
Activity [12]: inactive

C/C(=C\CC/C(C)=C/CC/C(=C/Cc1cc(O)ccc1O)C(=O)O)CO [GANOMYCIN A]
zone of inhibition at 100 µg/disc [3]: 15 mm
MIC [1]: 2.5 mg/L (≈ 6.94 µM)
MIC [2]: 25 mg/L (≈ 69.4 µM)
Activity [13]: inactive
zone of inhibition at 100 µg/disc [4]: 24 mm
zone of inhibition at 100 µg/disc [5]: 16 mm
zone of inhibition at 100 µg/disc [6]: 4 mm
zone of inhibition at 100 µg/disc [7]: 25 mm
zone of inhibition at 100 µg/disc [8]: 19 mm
Activity [14]: inactive
zone of inhibition at 100 µg/disc [9]: 15 mm
zone of inhibition at 100 µg/disc [10]: 16 mm
Activity [11]: inactive
zone of inhibition at 100 µg/disc [12]: 15 mm

CC(C)=CCC/C(C)=C/CC/C(=C/Cc1cc(O)ccc1O)C(=O)O [GANOMYCIN B]
zone of inhibition at 100 µg/disc [3]: 16 mm
MIC [1]: 2.5 mg/L (≈ 7.26 µM)
MIC [2]: 25 mg/L (≈ 72.6 µM)
Activity [13]: inactive
zone of inhibition at 100 µg/disc [4]: 24 mm
zone of inhibition at 100 µg/disc [5]: 18 mm
zone of inhibition at 100 µg/disc [6]: 5 mm
zone of inhibition at 100 µg/disc [7]: 26 mm
zone of inhibition at 100 µg/disc [8]: 20 mm
Activity [14]: inactive
zone of inhibition at 100 µg/disc [9]: 17 mm
zone of inhibition at 100 µg/disc [10]: 15 mm
Activity [11]: inactive
zone of inhibition at 100 µg/disc [12]: 15 mm
